“And” between values parts separate entries of the source, which are not always exact repeats. Identical values can stand only once. Inconclusive results and toxic doses are left out. No stated cut-off is given here; in the data, active means T/C of 150% or more; inactive means T/C below 125%.
System: L1210 leukemia ip in BDF1 mice, survival T/C
Experiment: NCI In Vivo Anticancer Drug Screen. Data for tumor model L1210 Leukemia (intraperitoneal) in B6D2F1 (BDF1) mice
Settings: endpoint: mean survival time, higher = longer survival
Method in brief: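 Transplanted-tumor mice were given test agent; controls received vehicle only. Survival readings from the two groups were divided (treated over control).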

[1] = dose: 100.0 mg/kg/injection, schedule: Q01DX009 (ip), vehicle: saline
[2] = dose: 100.0 mg/kg/injection, schedule: Q04DX003 (ip), vehicle: saline
[3] = dose: 200.0 mg/kg/injection, schedule: Q01DX009 (ip), vehicle: saline
[4] = dose: 200.0 mg/kg/injection, schedule: Q04DX003 (ip), vehicle: saline
[5] = dose: 400.0 mg/kg/injection, schedule: Q01DX009 (ip), vehicle: saline
[6] = dose: 400.0 mg/kg/injection, schedule: Q04DX003 (ip), vehicle: saline
[7] = dose: 100.0 mg/kg/injection, schedule: Q01DX009 (ip), vehicle: saline with Tween-80
[8] = dose: 100.0 mg/kg/injection, schedule: Q04DX003 (ip), vehicle: Klucel (hydroxypropylcellulose) (HPC)
[9] = dose: 100.0 mg/kg/injection, schedule: Q04DX003 (ip), vehicle: saline with Tween-80
[10] = dose: 200.0 mg/kg/injection, schedule: Q01DX009 (ip), vehicle: saline with Tween-80
[11] = dose: 200.0 mg/kg/injection, schedule: Q04DX003 (ip), vehicle: Klucel (hydroxypropylcellulose) (HPC)
[12] = dose: 200.0 mg/kg/injection, schedule: Q04DX003 (ip), vehicle: saline with Tween-80
[13] = dose: 400.0 mg/kg/injection, schedule: Q01DX009 (ip), vehicle: saline with Tween-80
[14] = dose: 400.0 mg/kg/injection, schedule: Q04DX003 (ip), vehicle: Klucel (hydroxypropylcellulose) (HPC)
[15] = dose: 400.0 mg/kg/injection, schedule: Q04DX003 (ip), vehicle: saline with Tween-80
[16] = dose: 100.0 mg/kg/injection, schedule: Q01DX001 (ip), vehicle: saline with Tween-80
[17] = dose: 200.0 mg/kg/injection, schedule: Q01DX001 (ip), vehicle: saline with Tween-80
[18] = dose: 400.0 mg/kg/injection, schedule: Q01DX001 (ip), vehicle: saline with Tween-80
[19] = dose: 100.0 mg/kg/injection, schedule: Q01DX001 (ip), vehicle: saline
[20] = dose: 200.0 mg/kg/injection, schedule: Q01DX001 (ip), vehicle: saline
[21] = dose: 50.0 mg/kg/injection, schedule: Q01DX009 (ip), vehicle: saline with Tween-80
[22] = dose: 100.0 mg/kg/injection, schedule: Q04DX002 (ip), vehicle: saline with Tween-80
[23] = dose: 200.0 mg/kg/injection, schedule: Q04DX002 (ip), vehicle: saline with Tween-80
[24] = dose: 25.0 mg/kg/injection, schedule: Q01DX009 (ip), vehicle: Klucel (hydroxypropylcellulose) (HPC)
[25] = dose: 50.0 mg/kg/injection, schedule: Q01DX009 (ip), vehicle: Klucel (hydroxypropylcellulose) (HPC)
[26] = dose: 100.0 mg/kg/injection, schedule: Q01DX009 (ip), vehicle: Klucel (hydroxypropylcellulose) (HPC)
[27] = dose: 100.0 mg/kg/injection, schedule: Q04DX002 (ip), vehicle: Klucel (hydroxypropylcellulose) (HPC)
[28] = dose: 200.0 mg/kg/injection, schedule: Q04DX002 (ip), vehicle: Klucel (hydroxypropylcellulose) (HPC)
[29] = dose: 400.0 mg/kg/injection, schedule: Q04DX002 (ip), vehicle: Klucel (hydroxypropylcellulose) (HPC)
[30] = dose: 50.0 mg/kg/injection, schedule: Q01DX001 (ip), vehicle: carboxymethylcellulose (CMC)
[31] = dose: 100.0 mg/kg/injection, schedule: Q01DX001 (ip), vehicle: carboxymethylcellulose (CMC)
[32] = dose: 200.0 mg/kg/injection, schedule: Q01DX001 (ip), vehicle: carboxymethylcellulose (CMC)
[33] = dose: 400.0 mg/kg/injection, schedule: Q01DX001 (ip), vehicle: carboxymethylcellulose (CMC)

Measured: T/C

N#CCCC(CC#N)S(=O)(=O)O (stereo not given)
inactive: [1] 105 % of control | [2] 100 % of control | [3] 103 % of control | [4] 108 % of control | [5] 102 % of control | [6] 106 % of control

O=C1c2ccccc2CC1(Br)C(Br)c1ccccc1 (stereo not given)
inactive: dose: 100.0 mg/kg/injection, schedule: Q01DX009 (ip), vehicle: saline sonified 99 % of control | [7] 96 % of control | [8] 104 % of control | [9] 107 % of control | dose: 200.0 mg/kg/injection, schedule: Q01DX009 (ip), vehicle: saline sonified 95 % of control | [10] 91 % of control | [11] 101 % of control | [12] 103 % of control | dose: 400.0 mg/kg/injection, schedule: Q01DX009 (ip), vehicle: saline sonified 94 % of control | [13] 89 % of control | [14] 98 % of control | [15] 104 % of control

CC(C)(C)OC(=O)NCC(=O)NNC(=O)OC(C)(C)C
inactive: [1] 92 % of control | dose: 100.0 mg/kg/injection, schedule: Q04DX003 (ip), vehicle: saline sonified 101 % of control | [3] 89 % of control | dose: 200.0 mg/kg/injection, schedule: Q04DX003 (ip), vehicle: saline sonified 97 % of control | [5] 92 % of control | dose: 400.0 mg/kg/injection, schedule: Q04DX003 (ip), vehicle: saline sonified 95 % of control

CC12CCC3c4ccc(Oc5ccccc5N)cc4CCC3C1CCC2=O (stereo not given)
inactive: dose: 100.0 mg/kg/injection, schedule: Q01DX001 (sc), vehicle: steriod suspending solution 101 % of control | dose: 200.0 mg/kg/injection, schedule: Q01DX001 (sc), vehicle: steriod suspending solution 95 % of control | dose: 400.0 mg/kg/injection, schedule: Q01DX001 (sc), vehicle: steriod suspending solution 89 % of control

c1ccc(-c2c(-c3ccccc3)c(-c3ccccc3)c(-c3ccc(Oc4ccc(-c5c(-c6ccccc6)c(-c6ccccc6)c(-c6ccccc6)c(-c6ccccc6)c5-c5ccccc5)cc4)cc3)c(-c3ccccc3)c2-c2ccccc2)cc1
inactive: [16] 92 % of control | [17] 92 % of control | [18] 100 % of control

CC(=O)N(C(C)=O)c1ccc(C)cc1
inactive: [1] 109 % of control | [2] 95 % of control | [3] 112 % of control | [4] 108 % of control | [6] 103 % of control

CC(C)=CCC(C)c1ccncc1 (stereo not given)
inactive: [19] 102 % of control | [20] 97 % of control | dose: 400.0 mg/kg/injection, schedule: Q01DX001 (ip), vehicle: saline 102 % of control

CCC1(C(C)Br)OC2=C(CC(C#N)(C#N)C(C#N)(C#N)C2)O1 (stereo not given)
inactive: dose: 25.0 mg/kg/injection, schedule: Q01DX009 (ip), vehicle: other 100 % of control | dose: 50.0 mg/kg/injection, schedule: Q01DX009 (ip), vehicle: saline 87 % of control | dose: 75.0 mg/kg/injection, schedule: Q01DX001 (ip), vehicle: saline 100 % of control | dose: 75.0 mg/kg/injection, schedule: Q01DX009 (ip), vehicle: other 87 % of control

COC(=O)CCN1CCC1
inactive: dose: 100.0 mg/kg/injection, schedule: Q04DX002 (ip), vehicle: saline 97 % of control | dose: 200.0 mg/kg/injection, schedule: Q04DX002 (ip), vehicle: saline 101 % of control | dose: 400.0 mg/kg/injection, schedule: Q04DX002 (ip), vehicle: saline 97 % of control

CC(C)(C)SCC#CCSC(C)(C)C
inactive: [21] 100 % of control | [7] 118 % of control | [22] 103 % of control | [10] 96 % of control | [23] 100 % of control

CC(=O)Nc1ccc(OCCOC(=O)Nc2ccc(C)c([N+](=O)[O-])c2)cc1
inactive: [21] 87 % of control | [10] 87 % of control

O=[N+]([O-])c1ccccc1N=Nc1c(O)[nH]c2c(Cl)cc(Cl)cc12
inactive: [19] 105 % of control

O=C(NCCCCCCCCCNC(=O)Nc1ccc(C2=NCCN2)cc1)Nc1ccc(C2=NCCN2)cc1
inactive: dose: 62.0 mg/kg/injection, schedule: Q01DX Z (ip), vehicle: carboxymethylcellulose (CMC) 102 % of control | dose: 125.0 mg/kg/injection, schedule: Q01DX Z (ip), vehicle: carboxymethylcellulose (CMC) 100 % of control

O=C(O)/C=C\C(=O)Nc1ccccc1C(=O)O
inactive: [9] 98 % of control | [12] 97 % of control | [15] 111 % of control

CC/C(=C/c1ccc(OC)c(OC)c1)[N+](=O)[O-]
inactive: [24] 98 % of control | [25] 101 % of control | dose: 50.0 mg/kg/injection, schedule: Q04DX003 (ip), vehicle: Klucel (hydroxypropylcellulose) (HPC) 96 % of control | [26] 91 % of control | [8] 104 % of control

CSc1ccc(OC(=O)Nc2ccc(Cl)cc2)cc1
inactive: [16] 95 % of control | [7] 104 % of control and 106 % of control | [27] 103 % of control | [22] 98 % of control | [9] 93 % of control | [17] 106 % of control | [10] 102 % of control and 104 % of control | [28] 103 % of control | [23] 90 % of control | [12] 95 % of control | [18] 90 % of control | [13] 100 % of control and 117 % of control | [29] 92 % of control | dose: 400.0 mg/kg/injection, schedule: Q04DX002 (ip), vehicle: saline with Tween-80 98 % of control | [15] 98 % of control

ClCCN(CCCl)c1ccc(C=Nc2ccc(-c3ccccn3)cc2)cc1
inactive: [30] 102 % of control | [31] 96 % of control | [32] 91 % of control | [33] 100 % of control

O=C(Cn1ccc(=O)[nH]c1=O)c1cccs1
inactive: [7] 104 % of control | [9] 98 % of control | [10] 96 % of control | [12] 96 % of control | [13] 96 % of control | [15] 95 % of control

COc1ccc(OC)c(-n2cccc2/C=N/NC(N)=O)c1
inactive: [27] 97 % of control | [28] 108 % of control | [29] 93 % of control

CC(=O)N(O)c1ccc(-c2cc3ccccc3[nH]2)cc1
inactive: [31] 101 % of control | [32] 93 % of control | [33] 93 % of control

CCCCCCCCSSCCCCCCCC
inactive: [7] 97 % of control | [2] 95 % of control | [10] 95 % of control | [4] 98 % of control | [13] 91 % of control | [6] 95 % of control

Cc1cc([N+](=O)[O-])ccc1O
inactive: [19] 100 % of control | [20] 100 % of control

COc1ccc(N=O)c(O)c1
inactive: [24] 104 % of control | [30] 93 % of control | [25] 103 % of control | [31] 97 % of control | [26] 106 % of control | [32] 104 % of control | [33] 101 % of control

O=C(Nc1ccc(F)c(Cl)c1)Oc1ccc(OCc2ccccc2)cc1
inactive: [8] 94 % of control | [11] 94 % of control | [14] 95 % of control

CC(=O)Nc1c(Cl)c(Cl)c2[nH]c(=O)c3cc(Cl)ccc3c2c1Cl
inactive: dose: 75.0 mg/kg/injection, schedule: Q01DX001 (ip), vehicle: carboxymethylcellulose (CMC) 87 % of control | dose: 150.0 mg/kg/injection, schedule: Q01DX001 (ip), vehicle: carboxymethylcellulose (CMC) 95 % of control | dose: 300.0 mg/kg/injection, schedule: Q01DX001 (ip), vehicle: carboxymethylcellulose (CMC) 88 % of control

— PubChem BioAssay AID248 (DTP/NCI, 2004)
